From US10611740B2, “Aryl dihydro-2H-benzo[b][1,4]oxazine sulfonamide and related compounds for use as agonists of RORγ and the treatment of disease” (Lycera Corporation, priority 2015, dated 2020) come the findings set out here.

Experiment [1] concerns the target T1, RORγ-LBD (Homo sapiens, UniProt P51449).
T1 construct: made in house; host or cells: SF9 cells (baculovirus)
T1 sequence (P51449 269-508 limits assumed): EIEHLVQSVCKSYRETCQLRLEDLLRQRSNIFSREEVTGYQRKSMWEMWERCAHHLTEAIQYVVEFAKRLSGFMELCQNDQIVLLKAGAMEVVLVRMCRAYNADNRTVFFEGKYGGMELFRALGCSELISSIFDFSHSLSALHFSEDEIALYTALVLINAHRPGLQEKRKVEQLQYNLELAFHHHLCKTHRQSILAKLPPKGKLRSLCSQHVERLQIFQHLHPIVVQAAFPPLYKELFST
Kind of experiment: RORγ-Ligand Binding Domain (LBD) TR-FRET Assay.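 For TR-FRET Assay Max Response: 665/615 nm ratio relative to signal without ursolic acid or compound set at 100.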 It is filed as biochemical. In short, it runs like this: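 Lysate from SF9 cells expressing His-RORγ-LBD is diluted to about 3 nM final in 50 mM Tris pH 7.0 assay buffer. A biotin-tagged SRC1 LXXLL peptide goes in at 200 nM final, plus ursolic acid at 2 μM final. Test compounds carry 1% DMSO final; signal read by TR-FRET.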

The target in experiment [2] is T2, Gal4-RORγ-LBD (Homo sapiens, UniProt P51449).
T2 construct: expressed in transfected cells; host or cells: HEK-293 cells (pcDNA3.1neo plasmid)
T2 sequence (P51449 269-508 limits assumed): T1 sequence (P51449 269-508 limits assumed)
Kind of experiment: Gal4-RORγ Luciferase Reporter Assay in HEK-293T Cells. Format: cell-based. Conditions: HEK-293 cells, luciferase reporter, with 2 μM ursolic acid. In short, it runs like this:
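In transfected HEK-293 cells (Gal4-RORγ-LBD, Gal4-luciferase), test agents with 2 μM ursolic acid were incubated overnight at 37 °C before luminescent detection. Values are relative to the ursolic-acid-free, compound-free signal (100).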

In the case of `CN(CCC(=O)O)C(=O)NCC[C@H]1CN(S(=O)(=O)c2cccc(C(F)(F)F)c2)c2cc(-c3cc(F)ccc3F)ccc2O1` [Compound 23Y, (S)-3-(3-(2-(6-(2,5-difluoro-phenyl)-4-((3-(trifluoromethyl)-phenyl)sulfonyl)-3,4-dihydro-2H-benzo[b][1,4]oxazin-2-yl)ethyl)-1-methylureido)propanoic acid], in experiment [1], the EC50 was < 0.5 µM and the “TR-FRET Assay Max Response” value is “*** (The symbol “***” indicates a value in the range of greater than 150 to 200)”. Also, in experiment [2], the EC50 was < 0.5 µM and the “Gal4-RORγ Assay Max Response” value was “** (The symbol “**” indicates a value in the range of greater than 90 to 150)”.

As to `Cc1cnc(-c2ccc3c(c2)N(S(=O)(=O)c2cccc(C(F)(F)F)c2)C[C@H](CCC(=O)O)O3)o1` [Compound 26, (S)-3-(6-(5-methyloxazol-2-yl)-4-((3-(trifluoromethyl)phenyl)sulfonyl)-3,4-dihydro-2H-benzo[b][1,4]oxazin-2-yl)propanoic acid], in experiment [1], the 50% effective concentration (EC50) is 0.5 to 5 µM and the “TR-FRET Assay Max Response” value was “*** (The symbol “***” indicates a value in the range of greater than 150 to 200)”. In experiment [2], the concentration giving a half-maximal response (EC50) was in the range of 0.5 to 5 µM and the “Gal4-RORγ Assay Max Response” value is “* (The symbol “*” indicates a value in the range of 25 to 90)”.

Take `NCC[C@H]1CN(S(=O)(=O)c2cccc(C(F)(F)F)c2)c2cc(-c3cc(F)ccc3F)ccc2O1` [Compound 27, (S)-2-(6-(2,5-difluorophenyl)-4-((3-(trifluoromethyl)phenyl)sulfonyl)-3,4-dihydro-2H-benzo[b][1,4]oxazin-2-yl)ethan-1-amine]: in experiment [1], the EC50 is < 0.5 µM and the “TR-FRET Assay Max Response” value is “**** (The symbol “****” indicates a value greater than 200)”. For the same compound, in experiment [2], the EC50 was in the range of 0.5 to 5 µM and the “Gal4-RORγ Assay Max Response” value is “* (The symbol “*” indicates a value in the range of 25 to 90)”.

Consider `O=c1[nH]nc(CC[C@H]2CN(S(=O)(=O)c3cccc(C(F)(F)F)c3)c3cc(-c4cccc(C(F)(F)F)n4)ccc3O2)o1` [Compound 28A, (S)-5-(2-(4-((3-(trifluoromethyl)-phenyl)sulfonyl)-6-(6-(trifluoromethyl)pyridin-2-yl)-3,4-dihydro-2H-benzo[b][1,4]oxazin-2-yl)ethyl)-1,3,4-oxadiazol-2(3H)-one], for which, in experiment [1], the EC50 is < 0.5 µM and the “TR-FRET Assay Max Response” value is “**** (The symbol “****” indicates a value greater than 200)”. In addition, in experiment [2], the EC50 was < 0.5 µM and the “Gal4-RORγ Assay Max Response” value is on record as “** (The symbol “**” indicates a value in the range of greater than 90 to 150)”.

With `CN(C)c1cccc(-c2ccc3c(c2)N(S(=O)(=O)c2cccc(C(F)(F)F)c2)C[C@H](CCc2n[nH]c(=O)o2)O3)n1` [Compound 28B, (S)-5-(2-(6-(6-(dimethylamino)-pyridin-2-yl)-4-((3-(trifluoro-methyl)phenyl)sulfonyl)-3,4-dihydro-2H-benzo[b][1,4]oxazin-2-yl)ethyl)-1,3,4-oxadiazol-2(3H)-one], in experiment [1], the 50% effective concentration (EC50) was < 0.5 µM and the “TR-FRET Assay Max Response” value is “**** (The symbol “****” indicates a value greater than 200)”. Also, in experiment [2], the EC50 was < 0.5 µM and the “Gal4-RORγ Assay Max Response” value is “** (The symbol “**” indicates a value in the range of greater than 90 to 150)”.

On to `O=c1[nH]nc(CC[C@H]2CN(S(=O)(=O)c3cccc(C(F)(F)F)c3)c3cc(-c4cncc(C(F)(F)F)c4)ccc3O2)o1` [Compound 28C, (S)-5-(2-(4-((3-(trifluoromethyl)-phenyl)sulfonyl)-6-(5-(trifluoromethyl)pyridin-3-yl)-3,4-dihydro-2H-benzo[b][1,4]oxazin-2-yl)ethyl)-1,3,4-oxadiazol-2(3H)-one], for which, in experiment [1], the EC50 is < 0.5 µM and the “TR-FRET Assay Max Response” value is recorded as “**** (The symbol “****” indicates a value greater than 200)”. In addition, in experiment [2], the EC50 was < 0.5 µM and the “Gal4-RORγ Assay Max Response” value was “* (The symbol “*” indicates a value in the range of 25 to 90)”.

Regarding `CC(C)c1cccc(S(=O)(=O)N2C[C@H](CCc3n[nH]c(=O)o3)Oc3ccc(-c4cc(F)ccc4F)cc32)c1` [Compound 28D, (S)-5-(2-(6-(2,5-difluorophenyl)-4-((3-isopropylphenyl)sulfonyl)-3,4-dihydro-2H-benzo[b][1,4]-oxazin-2-yl)ethyl)-1,3,4-oxadiazol-2(3H)-one], in experiment [1], the concentration for a half-maximal effect (EC50) is < 0.5 µM and the “TR-FRET Assay Max Response” value was “**** (The symbol “****” indicates a value greater than 200)”. Also, in experiment [2], the EC50 was < 0.5 µM and the “Gal4-RORγ Assay Max Response” value is “** (The symbol “**” indicates a value in the range of greater than 90 to 150)”.

In the case of `COc1cccc(-c2ccc3c(c2)N(S(=O)(=O)c2cccc(C(F)(F)F)c2)C[C@H](CCc2n[nH]c(=O)o2)O3)c1` [Compound 28E, (S)-5-(2-(6-(3-methoxyphenyl)-4-((3-(trifluoromethyl)phenyl)-sulfonyl)-3,4-dihydro-2H-benzo[b][1,4]oxazin-2-yl)ethyl)-1,3,4-oxadiazol-2(3H)-one], in experiment [1], the half-maximal effective concentration (EC50) is < 0.5 µM and the “TR-FRET Assay Max Response” value is “**** (The symbol “****” indicates a value greater than 200)”. Also, in experiment [2], the EC50 is < 0.5 µM and the “Gal4-RORγ Assay Max Response” value is “** (The symbol “**” indicates a value in the range of greater than 90 to 150)”.

As to `CC(C)c1cccc(S(=O)(=O)N2C[C@H](CCc3n[nH]c(=O)o3)Oc3ccc(-c4cccc(N(C)C)n4)cc32)c1` [Compound 28F, (S)-5-(2-(6-(6-(dimethylamino)-pyridin-2-yl)-4-((3-isopropyl-phenyl)sulfonyl)-3,4-dihydro-2H-benzo[b][1,4]oxazin-2-yl)ethyl)-1,3,4-oxadiazol-2(3H)-one], in experiment [1], the EC50 is < 0.5 µM and the “TR-FRET Assay Max Response” value is on record as “**** (The symbol “****” indicates a value greater than 200)”. Further, in experiment [2], the EC50 was < 0.5 µM and the “Gal4-RORγ Assay Max Response” value was “** (The symbol “**” indicates a value in the range of greater than 90 to 150)”.

In the case of `COc1cc(F)cc(-c2ccc3c(c2)N(S(=O)(=O)c2cccc(C(F)(F)F)c2)C[C@H](CCc2n[nH]c(=O)o2)O3)c1F` [Compound 28G, (S)-5-(2-(6-(2,5-difluoro-3-methoxyphenyl)-4-((3-(trifluoromethyl)phenyl)sulfonyl)-3,4-dihydro-2H-benzo[b][1,4]-oxazin-2-yl)ethyl)-1,3,4-oxadiazol-2(3H)-one], in experiment [1], the EC50 was < 0.5 µM and the “TR-FRET Assay Max Response” value is given as “**** (The symbol “****” indicates a value greater than 200)”. Besides, in experiment [2], the EC50 was < 0.5 µM and the “Gal4-RORγ Assay Max Response” value is “** (The symbol “**” indicates a value in the range of greater than 90 to 150)”.

For `COc1cc(-c2ccc3c(c2)N(S(=O)(=O)c2cccc(C(F)(F)F)c2)C[C@H](CCc2n[nH]c(=O)o2)O3)nc(N(C)C)c1` [Compound 28H, (S)-5-(2-(6-(6-(dimethylamino)-4-methoxypyridin-2-yl)-4-((3-(trifluoromethyl)phenyl)sulfonyl)-3,4-dihydro-2H-benzo[b][1,4]-oxazin-2-yl)ethyl)-1,3,4-oxadiazol-2(3H)-one], in experiment [1], the concentration for a half-maximal effect (EC50) is < 0.5 µM and the “TR-FRET Assay Max Response” value is recorded as “**** (The symbol “****” indicates a value greater than 200)”. In experiment [2], the EC50 was < 0.5 µM and the “Gal4-RORγ Assay Max Response” value is reported as “* (The symbol “*” indicates a value in the range of 25 to 90)”.
